Columns and labels:
[1] = Stability data at 40° C. ± 2° C. and 75% ± 5% relative humidity (six months); format: physicochemical; details: 75% ± 5% RH
Procedure: (§1) As used herein, the term “prolonged storage” refers to storage for up to 6 months and different stability conditions refers to storage at 25° C. temperature and 60% relative humidity; or at 40° C. temperature and 75% relative humidity.
(§2) In another general aspect, there is provided a stable composition of Saroglitazar magnesium, wherein the composition contains Saroglitazar magnesium having purity of about 99.0% or more, by weight, by area percentage of HPLC, and one or more of the aldehyde compound of Formula (II), the diketo oxirane compound of Formula (III), the hydroxy methyl compound of Formula (IV), or the dimer compound of Formula (V) in an amount of about 0.15%, or less, by weight, relative to saroglitazar magnesium, on prolonged storage and under different stability conditions i.e. 40° C.±2° C. temperature and 75%±5% relative humidity and at 25° C.±2° C. temperature and 60±5% relative humidity as outlined by the six months' stability data as shown in Table-2 and 3.
(§3) The purity of the samples of Saroglitazar or salts thereof including magnesium and SMBA salt is measured by area percentage of HPLC using following conditions:
(§4) Equipment: Shimadzu LC2020CHT HPLC system or equivalent
(§5) Column: YMC-Pack Pro C18 ([…]×4.0 mm, 3 μm)
(§6) Detector: UV-VIS detector or PDA detector
(§7) Column Oven Temp.: 25° C.

[2] = Stability data at 25° C. ± 2° C. and 60% ± 5% relative humidity (six months); format: physicochemical; details: 60% ± 5% RH
Procedure: as §1, §2, §3, §4, §5, §6, §7

2-ethoxy-3-(4-(2-(2-methyl-5-(4-(methylthio)phenyl)-1H-pyrrol-1-yl)ethoxy)phenyl)propanoate [Saroglitazar magnesium]
LOD ([1]; 1 month): 0.48 % w/w | Related Substance by HPLC: Formula II ([1]; 1 month): 0.01 % w/w | Related Substance by HPLC: Formula V ([1]; 1 month): 0.12 % w/w | Related Substance by HPLC: Total impurities ([1]; 1 month): 0.12 % w/w | LOD ([1]; 2 month): 0.44 % w/w | Related Substance by HPLC: Formula II ([1]; 2 month): 0.01 % w/w | Related Substance by HPLC: Formula V ([1]; 2 month): 0.12 % w/w | Related Substance by HPLC: Total impurities ([1]; 2 month): 0.12 % w/w | LOD ([1]; 3 months): 0.30 % w/w | Related Substance by HPLC: Formula II ([1]; 3 months): 0.01 % w/w | Related Substance by HPLC: Formula V ([1]; 3 months): 0.11 % w/w | Related Substance by HPLC: Total impurities ([1]; 3 months): 0.12 % w/w | LOD ([1]; 6 months): 0.24 % w/w | Related Substance by HPLC: Formula V ([1]; 6 months): 0.12 % w/w | Related Substance by HPLC: Total impurities ([1]; 6 months): 0.12 % w/w | LOD ([1]; Initial): 0.51 % w/w | Related Substance by HPLC: Formula II ([1]; Initial): 0.01 % w/w | Related Substance by HPLC: Formula V ([1]; Initial): 0.11 % w/w | Related Substance by HPLC: Total impurities ([1]; Initial): 0.18 % w/w | LOD ([2]; 1 month): 0.43 % w/w | Related Substance by HPLC: Formula II ([2]; 1 month): 0.01 % w/w | Related Substance by HPLC: Formula V ([2]; 1 month): 0.12 % w/w | Related Substance by HPLC: Total impurities ([2]; 1 month): 0.12 % w/w | LOD ([2]; 2 month): 0.64 % w/w | Related Substance by HPLC: Formula II ([2]; 2 month): 0.01 % w/w | Related Substance by HPLC: Formula V ([2]; 2 month): 0.12 % w/w | Related Substance by HPLC: Total impurities ([2]; 2 month): 0.12 % w/w | LOD ([2]; 3 months): 0.27 % w/w | Related Substance by HPLC: Formula II ([2]; 3 months): 0.01 % w/w | Related Substance by HPLC: Formula V ([2]; 3 months): 0.12 % w/w | Related Substance by HPLC: Total impurities ([2]; 3 months): 0.12 % w/w | LOD ([2]; 6 months): 0.35 % w/w | Related Substance by HPLC: Formula V ([2]; 6 months): 0.12 % w/w | Related Substance by HPLC: Total impurities ([2]; 6 months): 0.12 % w/w | LOD ([2]; Initial): 0.51 % w/w | Related Substance by HPLC: Formula II ([2]; Initial): 0.01 % w/w | Related Substance by HPLC: Formula V ([2]; Initial): 0.11 % w/w | Related Substance by HPLC: Total impurities ([2]; Initial): 0.18 % w/w

Reference: patent publication US12201611B2, “Composition comprising high purity pyrrole derivative and method for preparation thereof” (Zydus Lifesciences Limited, priority 2020, dated 2025)
